Patent US20220332700A1, “NOVEL APOPTOSIS SIGNAL-REGULATING KINASE 1 INHIBITORS” (MANKIND PHARMA LTD, priority 2019, published 2022)

Key:
recombinant ASK1 = target: T1, recombinant ASK1 (Homo sapiens, UniProt Q99683); assay: ASK1 Biochemical Assay (HTRF KinEASE-STK S3); settings: ATP 100 μM; read-out: Biochemical Assay IC50
T1 construct: purchased Carna Biosciences
Summary of the method: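 Recombinant ASK1 (5 ng) preincubated with compound 1 h at 23 °C in MOPS pH 7 buffer with Mg-acetate, DTT, NP40, glycerol, BSA and 1% DMSO. Inhibition calculated against vehicle after substrate-blank subtraction.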

Human ASK1 = target: T2, Human ASK1 (Homo sapiens, UniProt Q99683); assay: ASK1 Cell Based Assay (phospho p38 read out in hASK1 transfected HEK293T-AP1 cells); settings: HEK293T-AP1 cells, 1 mM hydrogen peroxide, phospho p38; read-out: Cell Based Assay IC50
T2 construct: expressed in transfected cells; host or cells: HEK293T-AP1
T2 sequence (Q99683 1-1374): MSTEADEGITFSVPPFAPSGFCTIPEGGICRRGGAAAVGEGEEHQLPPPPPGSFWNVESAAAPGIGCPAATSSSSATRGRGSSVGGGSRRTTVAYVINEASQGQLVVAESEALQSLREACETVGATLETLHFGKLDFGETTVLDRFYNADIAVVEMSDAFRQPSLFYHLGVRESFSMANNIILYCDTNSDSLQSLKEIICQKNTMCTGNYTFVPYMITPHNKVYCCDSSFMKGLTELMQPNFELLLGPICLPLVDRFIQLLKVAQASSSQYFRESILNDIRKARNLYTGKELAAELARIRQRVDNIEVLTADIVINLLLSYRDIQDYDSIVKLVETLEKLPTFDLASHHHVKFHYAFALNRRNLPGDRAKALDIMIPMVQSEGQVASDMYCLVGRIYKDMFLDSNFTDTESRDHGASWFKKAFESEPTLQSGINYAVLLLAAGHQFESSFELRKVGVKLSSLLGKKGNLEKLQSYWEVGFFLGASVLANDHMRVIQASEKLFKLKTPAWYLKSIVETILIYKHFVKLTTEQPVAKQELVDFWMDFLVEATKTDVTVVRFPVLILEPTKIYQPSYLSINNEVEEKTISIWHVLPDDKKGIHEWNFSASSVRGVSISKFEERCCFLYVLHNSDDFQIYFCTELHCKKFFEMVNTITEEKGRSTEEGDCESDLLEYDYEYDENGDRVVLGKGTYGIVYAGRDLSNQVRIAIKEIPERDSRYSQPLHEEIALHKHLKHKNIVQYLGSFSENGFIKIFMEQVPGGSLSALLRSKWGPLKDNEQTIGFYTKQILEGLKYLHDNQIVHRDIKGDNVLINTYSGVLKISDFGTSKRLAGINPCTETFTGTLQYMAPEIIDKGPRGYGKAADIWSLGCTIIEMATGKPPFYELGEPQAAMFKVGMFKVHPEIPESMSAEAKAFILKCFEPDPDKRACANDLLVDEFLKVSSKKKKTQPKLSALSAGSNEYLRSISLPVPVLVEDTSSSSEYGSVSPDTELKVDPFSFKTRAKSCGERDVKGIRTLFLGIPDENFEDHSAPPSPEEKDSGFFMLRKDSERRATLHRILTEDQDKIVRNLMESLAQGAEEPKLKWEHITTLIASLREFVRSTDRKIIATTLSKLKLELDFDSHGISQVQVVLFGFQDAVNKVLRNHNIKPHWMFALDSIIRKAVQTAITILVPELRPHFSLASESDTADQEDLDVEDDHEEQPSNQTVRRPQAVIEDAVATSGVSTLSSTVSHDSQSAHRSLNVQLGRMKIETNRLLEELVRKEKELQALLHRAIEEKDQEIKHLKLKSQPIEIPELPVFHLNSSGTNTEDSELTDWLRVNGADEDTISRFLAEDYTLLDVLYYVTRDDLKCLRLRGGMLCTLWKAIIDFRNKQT
Summary of the method: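 HEK293T-AP1 cells transfected with hASK1, after 24 h treated with compounds for 24 h (0.2% DMSO), then stimulated with 1 mM H2O2 for 1 h with compounds present.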

SMILES	IC50 (recombinant ASK1) [nM]	IC50 (Human ASK1) [nM]
CC(C)n1cnnc1-c1cccc(N2CCN(c3ccc(N4CCN(C)CC4)cc3)C2=O)n1 [Example 1092, 1-(6-(4-isopropyl-4H-1,2,4-triazol-3-yl)pyridin-2-yl)-3-(4-(4-methylpiperazin-1-yl)phenyl)imidazolidin-2-one]	< 100	> 1000
CC(C)n1cnnc1-c1cccc(N2CCN(c3ccc(C(=O)N4CC(C#N)C4)cc3)C2=O)n1 [Example 1095, 1-(4-(3-(6-(4-isopropyl-4H-1,2,4-triazol-3-yl)pyridin-2-yl)-2-oxoimidazolidin-1-yl)benzoyl)azetidine-3-carbonitrile]	< 100	> 1000
CC(C)n1cnnc1-c1cccc(N2CCN(c3ccc(C(C#N)N4CCOCC4)cc3)C2=O)n1 (stereo not drawn) [Example 1098, 2-(4-(3-(6-(4-isopropyl-4H-1,2,4-triazol-3-yl)pyridin-2-yl)-2-oxoimidazolidin-1-yl)phenyl)-2-morpholinoacetonitrile]	< 100	> 1000
CC(C)n1cnnc1-c1cccc(N2CCN(c3ccc(N4CCOCC4)nc3)C2=O)n1 [Example 1101, 1-(6-(4-isopropyl-4H-1,2,4-triazol-3-yl)pyridin-2-yl)-3-(6-morpholinopyridin-3-yl)imidazolidin-2-one]	< 50	190
CC(C)n1cnnc1-c1cccc(N2CCN(c3cnc(N4CCOCC4)nc3)C2=O)n1 [Example 1103, 1-(6-(4-isopropyl-4H-1,2,4-triazol-3-yl)pyridin-2-yl)-3-(2-morpholinopyrimidin-5-yl)imidazolidin-2-one]	< 100	> 100
CC(C)n1cnnc1-c1cccc(N2CCN(c3ccc(-n4ccnc4)nc3)C2=O)n1 [Example 1104, 1-(6-(1H-imidazol-1-yl)pyridin-3-yl)-3-(6-(4-isopropyl-4H-1,2,4-triazol-3-yl)pyridin-2-yl)imidazolidin-2-one]	< 100	> 100
CC(C)n1cnnc1-c1cccc(N2CCN(c3ccc(N(C)C)nc3)C2=O)n1 [Example 1105, 1-(6-(dimethylamino)pyridin-3-yl)-3-(6-(4-isopropyl-4H-1,2,4-triazol-3-yl)pyridin-2-yl)imidazolidin-2-one]	< 100	> 100
CNC(=O)c1ccc(N2CCN(c3cccc(-c4nncn4C(C)C)n3)C2=O)cn1 [Example 1106, 5-(3-(6-(4-isopropyl-4H-1,2,4-triazol-3-yl)pyridin-2-yl)-2-oxoimidazolidin-1-yl)-N-methylpyridine-2-carboxamide]	< 100	> 1000

The remaining lines, values ahead:

IC50 (recombinant ASK1) [nM]	IC50 (Human ASK1) [nM]	SMILES
< 100	> 1000	CC(C)n1cnnc1-c1cccc(N2CCN(c3ccc(N4CCC(C#N)C4)cc3)C2=O)n1 (stereo not drawn) [Example 1091, 1-(4-(3-(6-(4-isopropyl-4H-1,2,4-triazol-3-yl)pyridin-2-yl)-2-oxoimidazolidin-1-yl)phenyl)pyrrolidine-3-carbonitrile]
< 100	> 100	CC(C)n1cnnc1-c1cccc(N2CCN(c3ccc(N4CC(C(N)=O)C4)cc3)C2=O)n1 [Example 1093, 1-(4-(3-(6-(4-isopropyl-4H-1,2,4-triazol-3-yl)pyridin-2-yl)-2-oxoimidazolidin-1-yl)phenyl)azetidine-3-carboxamide]
< 100	> 1000	CC(C)n1cnnc1-c1cccc(N2CCN(c3ccc(N4CC(NC5CC5)C4)cc3)C2=O)n1 [Example 1094, 1-(4-(3-(cyclopropylamino)azetidin-1-yl)phenyl)-3-(6-(4-isopropyl-4H-1,2,4-triazol-3-yl)pyridin-2-yl)imidazolidin-2-one]
< 100	> 100	CC(C)n1cnnc1-c1cccc(N2CCN(c3ccc(N4CC(F)C4)cc3)C2=O)n1 [Example 1096, 1-(4-(3-fluoroazetidin-1-yl)phenyl)-3-(6-(4-isopropyl-4H-1,2,4-triazol-3-yl)pyridin-2-yl)imidazolidin-2-one]
